Data published in ChEMBL document CHEMBL4680149, “Biological evaluation and chemoproteomics reveal potential antibacterial targets of a cajaninstilbene-acid analogue” (Eur J Med Chem, 2020).
≈ marks a conversion by molar mass, not a printed value. Calls of active or inactive are those of the source. No cut-off for these calls is given here.

Columns and labels:
Staphylococcus aureus [1] = assay: Bacteriostatic activity against Staphylococcus aureus ATCC 25923 assessed as reduction in bacterial growth at 4 ug/ml incubated for 2 hrs by colony counting method; format: functional, organism-based; conditions: dose 4.0 µg/ml
Cell membrane [2] = assay: Induction of cell membrane permeabilization in Staphylococcus aureus ATCC 25923 assessed as increase in nucleic acid leakage by measuring increase in absorbance at 0.5 to 2X MIC measured every 30 mins for 5 hrs by spectrophotometry; format: subcellular
Staphylococcus aureus [3] = assay: Inhibition of PG biosynthesis in Staphylococcus aureus assessed as fold change in PlsY gene expression at 4 ug/ml incubated for 1 hr by qRT-PCR analysis relative to control; format: functional; conditions: dose 4.0 µg/ml
Cell membrane [4] = assay: Induction of cell membrane disruption in Staphylococcus aureus ATCC 25923 assessed as loose cell wall at 4 ug/ml incubated for 1 hr by transmission electron microscopic analysis; conditions: dose 4.0 µg/ml
Staphylococcus aureus [5] = assay: Bacteriostatic activity against Staphylococcus aureus ATCC 25923 assessed as reduction in bacterial growth at 4 ug/ml incubated for 16 hrs by Kirby-Bauer test method; format: functional, organism-based; conditions: dose 4.0 µg/ml
Staphylococcus aureus [6] = assay: Antibacterial activity against Staphylococcus aureus ATCC 25923 assessed as reduction in bacterial growth measured after 60 days of serial passage; format: functional; conditions: ATCC 25923, 1440 h, time 60 day
Staphylococcus aureus [7] = assay: Resistance index, ratio of MIC for antibacterial activity against Staphylococcus aureus ATCC 25923 measured after 60 days of serial passage to MIC for antibacterial activity against Staphylococcus aureus ATCC25923 measured after 16 hrs; format: functional
Staphylococcus aureus [8] = assay: Antibacterial activity against methicillin resistant Staphylococcus aureus ATCC 43300 persisters assessed as reduction in number of living bacteria at 24 to 40 ug/ml measured over 24 hrs by colony counting method; format: functional, organism-based; conditions: dose 24-40 µg/ml
Cell membrane [9] = assay: Induction of cell membrane disruption in Staphylococcus aureus ATCC 25923 at 4 ug/ml incubated for 1 hr by transmission electron microscopic analysis; format: subcellular; conditions: dose 4.0 µg/ml
Staphylococcus aureus [10] = assay: Inhibition of PG biosynthesis in Staphylococcus aureus assessed as fold change in CdsA gene expression at 4 ug/ml incubated for 1 hr by qRT-PCR analysis relative to control; format: functional; conditions: dose 4.0 µg/ml
Lipid bilayer = assay: Induction of pore formation in DOPC/DOPG large unilamellar vesicles assessed as calcein leakage at 0.5 to 2 times MIC measured for 30 mins by fluorescence based assay
Staphylococcus aureus [11] = assay: Bactericidal activity against Staphylococcus aureus ATCC 25923 assessed as reduction in bacterial colony formation at 2X MIC incubated for 2 hrs by colony counting method; format: functional, organism-based
Cell membrane [12] = assay: Induction of cell membrane depolarization in Staphylococcus aureus ATCC 25923 assessed as reduction in fluorescence intensity at 0.5 to 1 times MIC measured upto 90 mins by DiOC5 dye based flow cytometric analysis; format: subcellular; conditions: time min <=90
Staphylococcus aureus [13] = assay: Bactericidal activity against in Staphylococcus aureus ATCC 25923 assessed as induction of bacterial death by measuring reduction in fluorescence intensity at 4 times MIC measured upto 90 mins by DiOC5 dye based flow cytometric analysis; format: functional, organism-based; conditions: time min <=90
Staphylococcus aureus [14] = assay: Inhibition of PG biosynthesis in Staphylococcus aureus assessed as fold change in MprF gene expression at 4 ug/ml incubated for 1 hr by qRT-PCR analysis relative to control; format: functional; conditions: dose 4.0 µg/ml
Staphylococcus aureus [15] = assay: Antibacterial activity against methicillin resistant Staphylococcus aureus ATCC 43300 persisters assessed as eradication of colony formation at 24 to 40 ug/ml incubated for 6 hrs by colony counting method; format: functional, organism-based; conditions: dose 24-40 µg/ml
Staphylococcus aureus [16] = assay: Inhibition of PG biosynthesis in Staphylococcus aureus assessed as fold change in DgkB gene expression at 4 ug/ml incubated for 1 hr by qRT-PCR analysis relative to control; format: functional; conditions: dose 4.0 µg/ml
Cell membrane [17] = assay: Induction of cell membrane permeabilization in methicillin resistant Staphylococcus aureus ATCC 43300 assessed as increase in nucleic acid leakage by measuring increase in absorbance at 0.5 to 2X MIC measured every 30 mins for 5 hrs by spectrophotometry; format: subcellular
Staphylococcus aureus [18] = assay: Inhibition of PG biosynthesis in Staphylococcus aureus assessed as fold change in PlsX gene expression at 4 ug/ml incubated for 1 hr by qRT-PCR analysis relative to control; format: functional; conditions: dose 4.0 µg/ml
Cell membrane [19] = assay: Induction of cell membrane disruption in methicillin resistant Staphylococcus aureus ATCC 43300 assessed as loose cell wall at 4 ug/ml incubated for 1 hr by transmission electron microscopic analysis; conditions: dose 4.0 µg/ml
Staphylococcus aureus [20] = assay: Inhibition of PG biosynthesis in Staphylococcus aureus assessed as fold change in LtaS gene expression at 4 ug/ml incubated for 1 hr by qRT-PCR analysis relative to control; format: functional; conditions: dose 4.0 µg/ml
Staphylococcus aureus [21] = assay: Inhibition of PG biosynthesis in Staphylococcus aureus assessed as fold change in YpfP gene expression at 4 ug/ml incubated for 1 hr by qRT-PCR analysis relative to control; format: functional; conditions: dose 4.0 µg/ml
Staphylococcus aureus [22] = assay: Inhibition of PG biosynthesis in Staphylococcus aureus assessed as fold change in PlsC gene expression at 4 ug/ml incubated for 1 hr by qRT-PCR analysis relative to control; format: functional; conditions: dose 4.0 µg/ml
Staphylococcus aureus [23] = assay: Inhibition of PG biosynthesis in Staphylococcus aureus assessed as fold change in Cls gene expression at 4 ug/ml incubated for 1 hr by qRT-PCR analysis relative to control; format: functional; conditions: dose 4.0 µg/ml
Staphylococcus aureus [24] = assay: Binding affinity to His-tagged recombinant Staphylococcus aureus PgsA expressed in Escherichia coli Rosetta DE3 at 5 uM incubated for 1 hr followed by UV irradiation for 20 mins by in-gel fluorescence scanning analysis; conditions: time 80.0 min
Cell membrane [25] = assay: Induction of cell membrane disruption in methicillin resistant Staphylococcus aureus ATCC 43300 at 4 ug/ml incubated for 1 hr by transmission electron microscopic analysis; format: subcellular; conditions: dose 4.0 µg/ml
RAW264.7 = assay: Cytotoxicity against mouse RAW264.7 cells assessed as reduction in cell viability incubated for 48 hrs by MTT assay; format: cell-based; conditions: RAW264.7, 48 h
Staphylococcus aureus [26] = assay: Antibacterial activity against Staphylococcus aureus ATCC 25923 assessed as reduction in bacterial growth incubated for 16 hrs by broth microdilution method; format: functional

## COc1cc(/C=C/c2ccccc2F)c(C(=O)O)c(O)c1CC=C(C)C
Staphylococcus aureus [1]
  Activity: Active
Cell membrane [2]
  Activity: Active
Staphylococcus aureus [3]
  fold change (FC): 1.58
Cell membrane [4]
  Activity: Active
Staphylococcus aureus [5]
  Activity: Active
Staphylococcus aureus [6]
  MIC: 12 µg/mL (≈ 33.7 µM)
Staphylococcus aureus [7]
  Ratio: 3
Staphylococcus aureus [8]
  Activity: Active
Cell membrane [9]
  Activity: Active
Staphylococcus aureus [10]
  fold change (FC): 1.18
Lipid bilayer
  Activity: inactive
Staphylococcus aureus [11]
  Activity: Active
Cell membrane [12]
  Activity: Active
Staphylococcus aureus [13]
  Activity: Active
Staphylococcus aureus [14]
  fold change (FC): 0.759
Staphylococcus aureus [15]
  Activity: Active
Staphylococcus aureus [16]
  fold change (FC): 1.25
Cell membrane [17]
  Activity: Active
Staphylococcus aureus [18]
  fold change (FC): 0.577
Cell membrane [19]
  Activity: Active
Staphylococcus aureus [20]
  fold change (FC): 0.663
Staphylococcus aureus [21]
  fold change (FC): 0.446
Staphylococcus aureus [22]
  fold change (FC): 1.99
Staphylococcus aureus [23]
  fold change (FC): 0.558
Staphylococcus aureus [24]
  Activity: Active
Cell membrane [25]
  Activity: Active
RAW264.7
  IC50: 62.6 µM
Staphylococcus aureus [26]
  MIC: 4 µg/mL (≈ 11.2 µM)
